Nine compounds from ChEMBL document CHEMBL4311936, “Synthesis and structure-activity relationship studies of IgG-binding peptides focused on the C-terminal histidine residue” (Medchemcomm, 2019) can be followed below.

What is called pKd is −log10 of the Kd, conventionally taken in molar units.

pKd: −log10 of the molar value. Bridge positions count the residues as written; N and C are the ends. Square brackets hold non-standard residues; d marks the D form. Peptide text beside a SMILES is read from it. ξ: configuration not given here. ξ2Pal = NC(Cc1ccccn1)C(=O)O; ξDab = NCCC(N)C(=O)O

Test [1] can be described thus: Binding affinity to IgG (unknown origin) assessed as dissociation constant. Also noted: species or system Homo sapiens.
The species entered for test [2] is Homo sapiens. Nature of the test: Binding affinity to IgG (unknown origin) assessed as association rate constant.
Test [3] can be described thus: Binding affinity to human IgG assessed as dissociation constant by SPR analysis.
The species named for test [4] is Homo sapiens. Briefly: Binding affinity to human IgG assessed as association rate constant by SPR analysis.
For test [5], the species on record is Homo sapiens. Briefly: Binding affinity to human IgG assessed as dissociation rate constant by SPR analysis. A general note: SPR reads the build-up and loss of mass on a sensor chip optically.

Take `CC(C)C[C@@H]1NC(=O)[C@H](Cc2cnc[nH]2)NC(=O)[C@H](Cc2c[nH]c3ccccc23)NC(=O)[C@H](C)NC(=O)[C@@H](NC(=O)[C@H](CC(=O)O)NC(=O)[C@@H]2CCCN2)CSSC[C@@H](C(=O)N[C@H](C(=O)N2CCC[C@@H]2C(N)=O)[C@@H](C)O)NC(=O)[C@H](Cc2c[nH]c3ccccc23)NC(=O)[C@H](C(C)C)NC(=O)[C@H](CC(C)C)NC(=O)[C@H](CCC(=O)O)NC(=O)CNC1=O`: in test [1], the pKd was 8.66.

Consider `CC(C)C[C@@H]1NC(=O)[C@H](Cc2cnc[nH]2)NC(=O)[C@H](Cc2c[nH]c3ccccc23)NC(=O)[C@H](C)NC(=O)[C@@H]2CSSC[C@H](NC(=O)[C@H](Cc3c[nH]c4ccccc34)NC(=O)[C@H](C(C)C)NC(=O)[C@H](CC(C)C)NC(=O)[C@H](CCC(=O)O)NC(=O)CNC1=O)C(=O)N[C@@H]([C@@H](C)O)C(=O)N[C@H](C(=O)O)CSSC[C@H](N)C(=O)N[C@@H](CC(=O)O)C(=O)N2`, for which the pKd in test [1] is 8.61.

Regarding `CC(=O)N[C@@H](CC(=O)O)C(=O)N[C@H]1CSSC[C@@H](C(=O)N[C@H](C(=O)N[C@@H](Cc2ccccc2)C(=O)N[C@@H](Cc2cnc[nH]2)C(N)=O)[C@@H](C)O)NC(=O)[C@H](Cc2c[nH]c3ccccc23)NC(=O)[C@H](C(C)C)NC(=O)[C@H](CC(C)C)NC(=O)[C@H](CCC(=O)O)NC(=O)CNC(=O)[C@H](CCCCN)NC(=O)[C@H](Cc2cnc[nH]2)NC(=O)[C@H](Cc2ccc(O)cc2)NC(=O)[C@H](C)NC1=O` (Ac-DCAYHKGELVWCTFH-NH2; disulfide 2-12), in test [2], the Ka turned out to be 741000 M⁻¹ s⁻¹.

`CC(=O)N[C@@H](CC(=O)O)C(=O)N[C@H]1CSSC[C@@H](C(=O)N[C@H](C(=O)N[C@@H](Cc2ccccc2)C(=O)NC(CCN)C(N)=O)[C@@H](C)O)NC(=O)[C@H](Cc2c[nH]c3ccccc23)NC(=O)[C@H](C(C)C)NC(=O)[C@H](CC(C)C)NC(=O)[C@H](CCC(=O)O)NC(=O)CNC(=O)[C@H](CCCCN)NC(=O)[C@H](Cc2cnc[nH]2)NC(=O)[C@H](Cc2ccc(O)cc2)NC(=O)[C@H](C)NC1=O` (some centres undefined) (Ac-DCAYHKGELVWCTF[ξDab]-NH2; disulfide 2-12): the pKd in test [3] was 5.99. In addition, in test [4], the Ka turned out to be 731000 M⁻¹ s⁻¹. In addition, the Kdiss in test [5] amounted to 0.749 s⁻¹.

Take `CC(=O)N[C@@H](CC(=O)O)C(=O)N[C@H]1CSSC[C@@H](C(=O)N[C@H](C(=O)N[C@@H](Cc2ccccc2)C(=O)N[C@@H](Cc2cnc[nH]2)C(N)=O)[C@@H](C)O)NC(=O)[C@H](Cc2c[nH]c3ccccc23)NC(=O)[C@H](C(C)C)NC(=O)[C@H](CC(C)C)NC(=O)[C@H](CCC(=O)O)NC(=O)CNC(=O)[C@H](CC(C)C)NC(=O)[C@H](Cc2cnc[nH]2)NC(=O)[C@H](Cc2ccc(O)cc2)NC(=O)[C@H](C)NC1=O` (Ac-DCAYHLGELVWCTFH-NH2; disulfide 2-12): in test [2], the Ka worked out at 1.47e+06 M⁻¹ s⁻¹.

With `CC(=O)N[C@@H](CC(=O)O)C(=O)N[C@H]1CSSC[C@@H](C(=O)N[C@H](C(=O)N[C@@H](Cc2ccccc2)C(=O)NC(Cc2ccccn2)C(=O)O)[C@@H](C)O)NC(=O)[C@H](Cc2c[nH]c3ccccc23)NC(=O)[C@H](C(C)C)NC(=O)[C@H](CC(C)C)NC(=O)[C@H](CCC(=O)O)NC(=O)CNC(=O)[C@H](CC(C)C)NC(=O)[C@H](Cc2cnc[nH]2)NC(=O)[C@H](Cc2ccc(O)cc2)NC(=O)[C@H](C)NC1=O` (some centres undefined) (Ac-DCAYHLGELVWCTF[ξ2Pal]-OH; disulfide 2-12), the pKd in test [3] is 8.61. In addition, the Ka in test [4] was 1.35e+06 M⁻¹ s⁻¹. The Kdiss in test [5] is 0.0033 s⁻¹.

Consider `CC(=O)N[C@@H](CC(=O)O)C(=O)N[C@H]1CSSC[C@@H](C(=O)N[C@H](C(=O)N[C@@H](Cc2ccccc2)C(=O)NC(Cc2ccccn2)C(N)=O)[C@@H](C)O)NC(=O)[C@H](Cc2c[nH]c3ccccc23)NC(=O)[C@H](C(C)C)NC(=O)[C@H](CC(C)C)NC(=O)[C@H](CCC(=O)O)NC(=O)CNC(=O)[C@H](CC(C)C)NC(=O)[C@H](Cc2cnc[nH]2)NC(=O)[C@H](Cc2ccc(O)cc2)NC(=O)[C@H](C)NC1=O` (mixture of isomers), for which the pKd in test [3] was 8.66. The Ka in test [4] turned out to be 1.49e+06 M⁻¹ s⁻¹. For the same compound, the Kdiss in test [5] worked out at 0.00326 s⁻¹.

On to `CC(=O)N[C@@H](CC(=O)O)C(=O)N[C@H]1CSSC[C@@H](C(=O)N[C@H](C(=O)N[C@@H](Cc2ccccc2)C(=O)NC(Cc2ccccn2)C(=O)O)[C@@H](C)O)NC(=O)[C@H](Cc2c[nH]c3ccccc23)NC(=O)[C@H](C(C)C)NC(=O)[C@H](CC(C)C)NC(=O)[C@H](CCC(=O)O)NC(=O)CNC(=O)[C@H](CCCCN)NC(=O)[C@H](Cc2cnc[nH]2)NC(=O)[C@H](Cc2ccc(O)cc2)NC(=O)[C@H](C)NC1=O` (mixture of isomers), for which the pKd in test [3] was 7.01. Moreover, the Ka in test [4] came to 690000 M⁻¹ s⁻¹. Also, the Kdiss in test [5] amounted to 0.0674 s⁻¹.

For the compound `CC(=O)N[C@@H](CC(=O)O)C(=O)N[C@H]1CSSC[C@@H](C(=O)N[C@H](C(=O)N[C@@H](Cc2ccccc2)C(=O)NC(Cc2ccccn2)C(N)=O)[C@@H](C)O)NC(=O)[C@H](Cc2c[nH]c3ccccc23)NC(=O)[C@H](C(C)C)NC(=O)[C@H](CC(C)C)NC(=O)[C@H](CCC(=O)O)NC(=O)CNC(=O)[C@H](CCCCN)NC(=O)[C@H](Cc2cnc[nH]2)NC(=O)[C@H](Cc2ccc(O)cc2)NC(=O)[C@H](C)NC1=O` (mixture of isomers), in test [3], the pKd is 7.12. For the same compound, the Ka in test [4] worked out at 764000 M⁻¹ s⁻¹. The Kdiss in test [5] came out at 0.0579 s⁻¹.
